Consider 4 substances from patent US10494453B2, “Conjugate compound and uses of same” (THE UNIVERSITY OF QUEENSLAND, priority 2013, dated 2019).

Where two headings read alike, the source gives them in different places.

In data set [1] the test system is MPCs. The note with it: cited from earlier work; for Promotion of chondrogenesis of MPCs: absent growth factors or other chondroinductive supplements.
Data set [2] deals with MPCs. The data set is described as follows: DMMB assay for GAG content of chondrogenic MPC pellets. Format: cell-based, human. As for the experimental part: (§1) Chondrogenic differentiation was compared for MPCs cultured in maintenance medium and treated with PPS, HA, HA-PPS and HA-PPSCOOH at concentrations equivalent to 5, 10 and 20 μg/ml unbound PPS. These factors were added to the cells prior to pellet formation, which was initiated by centrifuging 2×105 MPCs in a non-adherent U-bottom plate at 500 g for 10 min. MPC pellets were cultured in […] medium with media changes every 3-4 days. After 21 days, samples were taken for analysis by histological staining, DMMB assay and qPCR.
Chondrogenic pellets were collected, rinsed in PBS and lysed in 1 mg/ml Papain in 100 mM sodium phosphate, 5 mM EDTA and 5 mM L-cystein (pH 6.5) overnight at 60° C. Samples of 40 μl were plated in triplicate with the addition of 10 μl 1% BSA in PBS and 50 μl 2×1,9-dimethylmethylene blue (DMMB). These were incubated at room temperature for 15 min and the absorbance at 525 nm read using a Spectramax M5 Fluorometer (Molecular Devices). Samples were normalized to DNA content as assessed by PicoGreen assay (Molecular Probes: performed according to the manufacturer's instructions).

Data set [3] relates to MPCs. As to the kind of experiment: qPCR gene expression of MPC pellets (chondrogenic differentiation). It counts as cell-based, human. To be noted: for Expression of BMP13: over untreated controls. As to the method:
(§2) Stro1-selected human MPCs were prepared by Lonza (Walkersville, USA) for Mesoblast Ltd (Melbourne, Australia) according to the isolation procedure described by Gronthos et al. MPCs were cultured in alphaMEM supplemented with 100 U/ml penicillin, 100 μg/ml streptomycin (Gibco/Invitrogen Carlsbad, Calif., USA), 10% batch tested foetal bovine serum (FBS), 2 mM L-Glutamine, 1 mM Sodium Pyruvate, and 100 μM L-ascorbate-2-Phosphate. Tissue culture flasks were maintained at 37° C. in 5% CO2 in an atmosphere with 95% humidity. Upon reaching 70% confluence MPCs were passaged, replating at 2000 cells/cm2.
as §1
Total RNA was extracted using an RNeasy Minikit with on-column DNase treatment (Qiagen) according to the manufacturer's instructions, cDNA was synthesized from 250 ng RNA, or the equivalent volume of DNase and RNasefree water for no-RT controls, using the SuperScript® III First-Strand Synthesis System (Invitrogen). qPCR reactions were set-up in a total volume of 10 μl with 1× Platinum SYBR Green qPCR SuperMix-UDG (Invitrogen) and 0.2 μM forward and reverse primers. A 7500 Fast Real-Time PCR System (Applied Biosystems) with fast cycling parameters of 2 min at 50° C., 2 min at 95° C. then 40 cycles of 3 sec at 95° C. and 30 sec at 60° C. followed by a melt curve was used to run the samples. Data was analysed using the 2-^ΔΔct method and normalized back to untreated monolayer levels.
Background: Real-time PCR tracks product formation cycle by cycle.

Data set [4] relates to MPCs. The data set is described as follows: Collagen-II immunofluorescence of MPC/hydrogel composites. To be noted: compared to gels alone. It counts as cell-based, human. As for the experimental part:
(§3) MPCs (P4-6) were encapsulated in gels containing 15 mg/ml HATYR, 16.5 mg/ml PEGHPA. 0.25 U/ml horseradish peroxidase (HRP) and varying amounts of hydrogen peroxide (H2O2). Soluble PPS was added into the gels prior to crosslinking at a final concentration of 5 μg/ml. HA-PPS and HA-PPSCOOH were incorporated at concentrations of 16 μg/ml and 9 μg/ml respectively giving a concentration of PPS equivalent to 5 μg/ml unbound PPS.
(§4) MPCs were resuspended to a concentration of 5×10^6 cells/ml in solution containing all of the components except H2O2 and thoroughly mixed. Crosslinking was then initiated by the addition of H2O2 and the gels spotted out into lowbinding tissue culture plates. After 15 minutes, growth media was added to the well and the cell/gel composites cultured for up to 21 days with media changes every 3-4 days.
Samples were fixed in 4% paraformaldehyde for 20 min and rinsed with PBS. To detect Collagen-II, the samples were digested with 0.01% pepsin (w/v) in 0.01M HCL (pH2) for 30 min at 37° C. and incubated in 0.1% Triton-X-100 for […] at RT° C. before blocking in 2% BSA/2% goat serum for 1 hr. A Collagen-II antibody (Abram ab3092) was used at a dilution of 1/50 for 2 hrs followed by incubation with an AlexFluor 488-conjugated secondary antibody for 1 hr. […]

In data set [5] the test system is MPCs. The data set is described as follows: Live/dead staining of MPCs encapsulated in HA/PEG hydrogels. Format: cell-based, human. To be noted: HA/PEG hydrogels containing the substance; 24 hrs and 7 days. As for the experimental part:
as §3, §4

A short description of the next data set: Swelling of hydrogels. It counts as physicochemical. To be noted: incorporated into the hydrogels; p<0.05. As to the method:
To determine the degree of swelling, 50 μl gels were synthesized and the dry weight obtained after freeze-drying for 24 hrs (Wd). The gels were then incubated in 500 μl PBS for 24 hrs at […]. The PBS was removed and the gels reweighed (Ws). The degree of swelling was determined by ((Ws-Wd)/Wd) using triplicate gels for each condition. Degradation of 50 μl gels was measured over a period of 3 months using triplicate samples for each condition. After synthesis, the gels were incubated in PBS/0.01% Sodium azide at 37° C. with weekly changes of buffer. At specific tirnepoints all excess PBS was removed and the gels weighed. The degree of degradation was expressed as a % of the original gel mass.

Data set [6] can be described thus: Rheological characterisation of PEG/HA hydrogels. It counts as physicochemical. To be noted: incorporated into PEG/HA hydrogel. As to the method:
All rheological measurements were obtained using an AR G2 rheometer (TA Instruments, New Castle, Del.) in oscillatory mode using a 20 mm diameter stainless steel flat plate and lower Teflon Pelletier surface. The gels were synthesized and, upon addition of the H2O2, immediately vortexed and loaded between the plates of the rheometer with a gap measurement of 1000 μm. Gelation kinetics and final moduli were determined by timesweeps at 37° C., conducted with a controlled strain of 1% and an angular frequency of 6.28 rad/sec. Frequency sweeps were performed between 5.000E-3 to 50 rad/sec at 1% strain. Stress sweeps confirmed that this was within the linear viscoelastic region.

For data set [7], the system named is MPCs. As to the kind of experiment: CCK8 assay of MPC proliferation. Format: cell-based, human. To be noted: 7 days; concentrations equivalent to 5, 10 and 20 μg/ml unbound PPS. As for the experimental part:
as §2
MPCs were seeded at a density of 2000 cells/cm2 in a 96-well plate and allowed to adhere for 4 hrs at which point the medium was exchanged for MPC maintenance medium supplemented with PPS, HA, HA-PPS and HA-PPSCOOH at concentrations equivalent to 5, 10 and 20 μg/ml unbound PPS. MPCs were cultured for 7 days with media changes every 2-3 days and the cell number determined by CCK8 assay (Sigma). Briefly, the culture medium was replaced with 100 μl MPC maintenance medium (without phenol red) containing 10% (v/v) CCX8. After 2 hrs the absorbance was read at 450 nm. All samples were performed in triplicate and normalised to blank medium without cells.
A general note: Tetrazolium dyes change colour on reduction, which living cells bring about.

Where [8] appears, read: absence of differentiation factors.

Turning to heparin, the “Promotion of chondrogenesis of MPCs” value in the data set with MPCs [1] was “did not show any success”.
Take pentosan polysulfate [PPS]: the “GAG content (DMMB assay)” value in the data set with MPCs [2] (% of untreated pellets, after 21 days, no additional chondrogenic factors) is listed as 150%. The “Promotion of chondrogenesis of MPCs” value in the data set on MPCs [1] was “induced the in vitro proliferation and chondrogenic differentiation of MPCs”. Besides, the “Expression of osteogenic transcription factor Runx2” value in the data set on MPCs [3] (absence of any differentiation factors, vs untreated controls) is “small but significant decrease”. Moreover, in the data set on MPCs [3] (setting [8]), the “Expression of the BMP antagonist Noggin” value is on record as “decreased” and the “Expression of BMP13” value is recorded as “significantly increased”. Also, in the data set on MPCs [4], the “Deposition of collagen-II around encapsulated MPCs” value was “increased”. The “Viability of encapsulated MPCs” value with MPCs [5] is given as “retained good viability”. The “Change in swelling of hydrogel” value in “Swelling of hydrogels” is listed as “decreased”. In addition, in data set [6], the “Gelation process of hydrogel” value is listed as “slows the gelation process” and the “Resulting modulus of hydrogel” value was “small decrease in resulting modulus”.
For the substance hyaluronic acid [HA], the “GAG production by MPCs” value in the data set with MPCs [2] (exposure of MPCs to substance alone) is “did not produce any increase in GAG production”. Also, the entries for the “Proteoglycan (PG) synthesis by MPCs” value in the data set with MPCs [1] (higher concentrations) and in the data set with MPCs [1] (low concentrations) were “inhibited PG synthesis” and “showed some stimulation”, respectively. Besides, the “Expression of BMP13” value with MPCs [3] (setting [8]) is on record as “no effect”. Besides, in the data set on MPCs [7], the “MPC proliferation (CCK8 assay)” value was “did not have this effect”.
dextran sulphate: in the data set on MPCs [1], the “Promotion of chondrogenesis of MPCs” value is “did not show any success”.
